# What was measured:
# [1] = tested on: mice treated with Aβ25-35
# Protocol: The hippocampi were homogenized in 50 mM Tris-150 mM NaCl solution, pH 7.5, and sonicated for 20 s. After centrifugation at 16 100 g for 15 min at 4° C., the supernatants were used for ELISA assays in accordance with the manufacturer's instructions (ThermoScientific, Courtaboeuf, France; USCN, Wuhan, China). For each assay, absorbance was read at 450 nm and the concentration of each sample calculated in comparison with a standard curve. The results are expressed in ng or pg per mg of tissue and expressed as % of the control group.
# On Day 9, the animals were sacrificed, the brains removed, the hippocampi and cortex dissected and frozen.
# [2] = tested on: APPSwe mice; test: Spontaneous alternation in Y-maze, transgenic APPSwe mice, chronic treatment; type: in vivo; details: for alternation deficit of APPSwe animals: 1 mg/kg/d
# Protocol: FIG. 8: Spontaneous alternation (a, b) and total number of arm entries (c, d) of APPSwe mice given compound 3b, in the Y-maze, after treatment of one month (a, c) and 2 months (b, d). The animals were given compound 3b (0.7 or 2 mg/kg IP) 3 times per week for 1 or 2 months. N=6-15 per group. ANOVA: F(5.49)=3.84, p<0.01 at (a); F(5.54)=1.54, p>0.05 at (b); F<1 at (c) et (d). *p<0.05, **p<0.01 compared with group (WT+V); #p<0.05 compared with group (APPSwe+V); Dunnett test at (a, b).
# FIG. 10: Spontaneous alternation (a, b) and number of arm entries (c, d) for APPSwe mice treated with compound 3c, in the Y-maze, after treatment for 1 month (a, c) or 2 months (b, d). The animals were given compound 3c (1 mg/kg IP) 3 times per week for 1 or 2 months. N=10-13 per group. ANOVA: F(3.45)=3.61, p<0.05 at (a); F(3.38)=6.33, p<0.01 at (b); F<1 at (c) and (d). *p<0.05, ***p<0.001 compared with group WT/V; #p<0.05 compared with group APPSwe/V; Dunnett test at (a, b).
# The animals were tested for spontaneous alternation performance in a Y-maze, an index of spatial working memory. The Y-maze was in grey PVC. Each arm was 40 cm long, 13 cm high, 3 cm wide at the base and 10 cm wide in the upper part, and converging at an equal angle. Each mouse was placed at one end of an arm and was able to move freely through the maze during an 8-min session. The series of arm entries, including any returns in the same arm were visually analysed. Alternation is defined as being consecutive entries in three different arms. The maximum number of alternations is therefore the total number of arm entries less two, and alternation percentage is calculated as (actual alternations/maximum possible alternations)×100. The parameters comprise the alternation percentage (memory index) and the total number of arm entries (exploratory index).
# TG2576 mice, over-expressing the human amyloid precursor protein carrying the Swedish double mutation APPSwe, develop the pathology towards the age of 8-10 months and up until 15-17 months, age at which 95% of the animals show behavioural, biochemical and morphological signs of the disease. Compound 3b was administered under chronic treatment at doses of 0.7 mg/kg/d IP and then 2 mg/kg/d IP. The effect of compound 3c, at a dose of 1 mg/kg/j IP, was also documented.
# [3] = tested on: mice treated with peptide Aβ25-35; test: In vivo screening of derivatives as neuroprotectors (spontaneous alternation, passive avoidance, ROS level), Aβ25-35 model
# Protocol: FIG. 7: Screening of phosphinolactones as neuroprotectors in mice treated with peptide Aβ25-35: (a) spontaneous alternation; (b) passive avoidance step-through latency; (c) Levels of reactive oxygen species in hippocampus. The mice were given compound 3b (0.3, 0.7 mg/kg IP) or a dose of each compound (0.3 mg/kg IP) 20 min before I′Aβ25-35 or the control peptide Sc.Aβ (9 nmol ICV). The animals were tested in the Y-maze on Day 7 after the ICV injections and for passive avoidance on Days 8-9, and then sacrificed. In each graph at (a-c), the 50% protection level compared with the deficit induced by Aβ25-35 is plotted as a dotted line. It is to be noted that at (a), the column represents the median and the error bars represent the deviations 25%-75% (=asymmetric deviations). n=12 at (a, b) and 5-6 at (c). ANOVA on groups 1-4: F(3.63)=7.95, p<0.001 at (b); H=24.1, p<0.0001 at (c); F(3.44)=6.33, p<0.01 at (d). *p<0.05, **p<0.01, ***p<0.001 compared with group (Sc.Aβ+V); #p<0.05, ##p<0.01, ###p<0.001 compared with group (Aβ25-35+V); Dunnett test at (a, c) and Dunn at (b). The values of the groups 5-12 (screened compounds) were analysed by t-test at (a, c) or Mann-Whitney at (b).
# From the molecules derived from the synthesis, a panel of 8 derivatives was selected and screened for potential neuroprotective efficacy. The compounds were injected at a dose of 0.3 mg/kg IP, i.e. the maximum non-active dose of 3b and compared with 3b injected at 0.3 and 0.7 mg/kg IP. The compounds were injected […] before the Aß25-35 peptide, and the mice were tested for spontaneous alternation on Day 7, passive avoidance on Days 8 and 9 and the ROS level was measured in the hippocampus (FIG. 7). For each response (spontaneous alternation: FIG. 7a; step-through latency in passive avoidance: FIG. 7b, and DCF fluorescence level: FIG. 7c), a 50% level of the effect between the values of the ScAß and Aß25-35 animals was taken as criterion of efficacy. […] Compound 3c is an isomer at the position of the chlorine atom of 3b. Regarding compound 3n, this has a 5-pyrimidyl group attached to the phosphorus atom, and for compound 3l it is a 4-pyridinyl group.
# [4] = 1.5 mg/kg IP, control ScAβ animals
smiles,measurement,setting,value
"CC1(C)COP(=O)(c2cccc(Cl)c2)C(C)(C)N1 (racemic) [Compound 3b, (±)-2-(3-Chlorophenyl)-2-oxo-3,3,5,5-tetramethyl-[1,4,2]-oxazaphosphinane]",Bax in control animals ScAβ,[1]; [4],tends to increase Bax
same,Bax/Bcl2 ratio in control animals ScAβ,[1]; [4],tends to increase
same,Bcl2 levels,[1]; 0.3-1.5 mg/kg IP,no effect
same,alternation in the WT animals,"[2]; lowest dose (0.7 mg/kg/d), 2 months",appears to impact alternation
same,spontaneous alternation performance of wild-type control animals,"[2]; treatment for one month, 0.7 or 2 mg/kg IP",does not affect the performance
same,maximum non-active dose of 3b,[3]; IP,0.3 mg/kg
"CC1(C)COP(=O)(c2ccc(Cl)cc2)C(C)(C)N1 (racemic) [Compound 3c, (±)-2-(4-Chlorophenyl)-2-oxo-3,3,5,5-tetramethyl-[1,4,2]-oxazaphosphinane]",alternation deficit of APPSwe animals,[2]; 1 month,attenuated
same,alternation deficit of APPSwe animals,[2]; 2 months,significantly blocked
same,"criterion of efficacy: 50% level of the effect between ScAβ and Aβ25-35 animals (spontaneous alternation, step-through latency, DCF fluorescence)",[3]; 0.3 mg/kg IP,met the criterion for the 3 parameters
same,efficacy compared with 3b,[3]; Aβ25-35 model,as effective at 0.3 mg/kg IP as 3b at 0.7 mg/kg IP
same,efficiency in the screening of the molecules in the series,[3]; Aβ25-35 model,highly efficient
